Patent publication US10125134B2 (Mirati Therapeutics, Inc., priority 2016, dated 2018)
Where a name gives a salt, the structure may show the parent alone. Read-outs that look alike come from different tables or passages of the source.

How the values were obtained:
[1] = test system: NCI-H358 cells (express KRas G12C), Phospho-ERK; assay: Cellular inhibition of KRas G12C: Phospho-ERK in NCI-H358 cells; assay type: cell-based
How it was run: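 IC50 derived by 4-parameter fit of GAPDH-normalized pERK(Thr202/Tyr204) signal, as percent of DMSO control. Signal came from in-cell immunodetection with infrared secondaries after 3 h compound exposure of KRas G12C NCI-H358 cells at 0.5% DMSO.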

KRas G12C = KRas G12C (Homo sapiens, UniProt P01116, C118S/C51S/C80L/G12C); assay: KRas G12C Modification Assay (LCMS detection of covalent adduct); assay type: binding
How it was run: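 Cys-light KRas G12C mutant protein incubated with compound in K-Ras assay buffer, reactions quenched at set time points with 25 mM acetic acid and analysed by intact-protein LC/MS on a C-3 column. Deconvoluted mass heights expressed as percent of control (POC) relative to compound-free protein.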

[2] = Homo sapiens, NCI-H358, 3 h, pERK(Thr202/Tyr204) normalized with GAPDH, NCI-H358 cells, 3 hours, read-out: IC50
[3] = normalized percent of control, tested at 5 μM concentration for 3 hours
[4] = Homo sapiens, pERK(Thr202/Tyr204) normalized with GAPDH, NCI-H358 cells, 3 hours, read-out: IC50

Row | Structure (SMILES) | POC (KRas G12C; [3]) | IC50 [1, 2] [µM] | further results
1 | C=CC(=O)N1CCN(c2nc(OCCCO)nc3c2CCN(c2cccc4ccccc24)C3)CC1CC#N (stereo not shown) [Example 231, 2-(1-acryloyl-4-(2-(3-hydroxypropoxy)-7-(naphthalen-1-yl)-5,6,7,8-tetrahydropyrido[3,4-d]pyrimidin-4-yl)piperazin-2-yl)acetonitrile] | C (“C”>50% POC) |  | IC50 [1, 4]: 0.0001 to 1 µM
2 | C=CC(=O)N1CCN(c2nc(OCCN(C)C)nc3c2CCN(c2cc(O)cc4ccccc24)C3)C(CO)C1 (stereo not shown) [Example 53, 1-(4-(2-(2-(dimethylamino)ethoxy)-7-(3-hydroxynaphthalen-1-yl)-5,6,7,8-tetrahydropyrido[3,4-d]pyrimidin-4-yl)-3-(hydroxymethyl)piperazin-1-yl)prop-2-en-1-one] | C (“C”>50% POC) | > 1 | 
3 | C=CC(=O)N1CCN(c2nc(OCCCN3CCOCC3)nc3c2CCN(c2cc(O)cc4sc(C)nc24)C3)CC1 [Example 166, 1-[4-[7-(6-hydroxy-2-methyl-1,3-benzothiazol-4-yl)-2-(3-morpholinopropoxy)-6,8-dihydro-5H-pyrido[3,4-d]pyrimidin-4-yl]piperazin-1-yl]prop-2-en-1-one] |  |  | IC50 ([1]; Homo sapiens, NCI-H358, 3 h): > 1 µM; POC (KRas G12C; 5 µM): B (key: “A”≤25% POC; “B”>25% POC−≤50% POC; “C”>50% POC)
4 | C=CC(=O)N1CCN(c2nc(OCCN(C)C)nc3c2CCN(c2cc(O)cc4ccccc24)C3)[C@@H](C)C1 [Example 116, (S)-1-(4-(2-(2-(dimethylamino)ethoxy)-7-(3-hydroxynaphthalen-1-yl)-5,6,7,8-tetrahydropyrido[3,4-d]pyrimidin-4-yl)-3-methylpiperazin-1-yl)prop-2-en-1-one] | C (“C”>50% POC) | 0.0001 to 1 | 
5 | C=CC(=O)N1CCN(c2nc(N3CCOCC3)nc3c2CCN(c2cc(O)cc4ccccc24)C3)CC1 [Example 118, 1-(4-(7-(3-hydroxynaphthalen-1-yl)-2-morpholino-5,6,7,8-tetrahydropyrido[3,4-d]pyrimidin-4-yl)piperazin-1-yl)prop-2-en-1-one] | A (“A”≤25% POC) | > 1 | 
6 | C=CC(=O)N1CCN(c2nc(OCCCN3CCS(=O)(=O)CC3)nc3c2CCN(c2cc(O)cc4ccccc24)C3)CC1 [Example 34, 1-(4-(2-(3-(1,1-dioxidothiomorpholino)propoxy)-7-(3-hydroxynaphthalen-1-yl)-5,6,7,8-tetrahydropyrido[3,4-d]pyrimidin-4-yl)piperazin-1-yl)prop-2-en-1-one trifluoroacetate] | A (“A”≤25% POC) | > 1 | 
7 | C=CC(=O)N1CCN(c2nc(OCCCN3CCCCC3)nc3c2CCN(c2c(C)ccc4[nH]ncc24)C3)CC1 [Example 160, 1-(4-(7-(5-methyl-1H-indazol-4-yl)-2-(3-(piperidin-1-yl)propoxy)-5,6,7,8-tetrahydropyrido[3,4-d]pyrimidin-4-yl)piperazin-1-yl)prop-2-en-1-one] | C (“C”>50% POC) |  | IC50 [1, 4]: > 1 µM
8 | C=CC(=O)N1CCN(c2ncnc3c2CCN(c2cccc4ccc(O)cc24)C3)CC1 [Example 2, 1-(4-(7-(7-hydroxynaphthalen-1-yl)-5,6,7,8-tetrahydropyrido[3,4-d]pyrimidin-4-yl)piperazin-1-yl)prop-2-en-1-one] | A (“A”≤25% POC) | > 1 | 
9 | C=CC(=O)N1CCN(c2nc(OCCCN3CCOCC3)nc3c2CCN(c2cc(O)ccc2OC(F)(F)F)C3)CC1 [Example 90, 1-(4-(7-(5-hydroxy-2-(trifluoromethoxy)phenyl)-2-(3-morpholinopropoxy)-5,6,7,8-tetrahydropyrido[3,4-d]pyrimidin-4-yl)piperazin-1-yl)prop-2-en-1-one] | C (“C”>50% POC) |  | IC50 [1, 4]: 0.0001 to 1 µM
10 | C=CC(=O)N1CCN(c2ncnc3c2CCN(c2cc(O)cc4ccccc24)C3)CC1 [Example 1, 1-(4-(7-(3-hydroxynaphthalen-1-yl)-5,6,7,8-tetrahydropyrido[3,4-d]pyrimidin-4-yl)piperazin-1-yl)prop-2-en-1-one] | B (“B”>25% POC−≤50% POC) | > 1 | 
11 | C=CC(=O)N1CCN(c2ncnc3c2CCN(c2cncc4ccccc24)C3)CC1 [Example 69, 1-(4-(7-(isoquinolin-4-yl)-5,6,7,8-tetrahydropyrido[3,4-d]pyrimidin-4-yl)piperazin-1-yl)prop-2-en-1-one] | A (“A”≤25% POC) |  | IC50 [1, 4]: > 1 µM

Further lines, with some results ahead:

Row | POC (KRas G12C; [3]) | Structure (SMILES) | IC50 [1, 2] [µM] | further results
12 | C (“C”>50% POC) | C=CC(=O)N1CCN(c2nc(OC[C@@H]3C[C@@H](F)CN3C)nc3c2CCN(c2cccc(C)c2C)C3)C[C@@H]1CC#N [Example 435, 2-((S)-1-acryloyl-4-(7-(2,3-dimethylphenyl)-2-(((2S,4R)-4-fluoro-1-methylpyrrolidin-2-yl)methoxy)-5,6,7,8-tetrahydropyrido[3,4-d]pyrimidin-4-yl)piperazin-2-yl)acetonitrile] | 0.0001 to 1 | 
13 | C (“C”>50% POC) | C=CC(=O)N1CCN(c2nc(OC[C@@H]3CCCN3C)nc3c2CCN(c2cccc4ccccc24)C3)[C@H](C)C1 [Example 353, 1-[(3R)-3-methyl-4-[2-[[(2S)-1-methylpyrrolidin-2-yl]methoxy]-7-(1-naphthyl)-6,8-dihydro-5H-pyrido[3,4-d]pyrimidin-4-yl]piperazin-1-yl]prop-2-en-1-one] | > 1 | 
14 | C (“C”>50% POC) | C=CC(=O)N1CCN(c2nc(OC[C@@H]3CCCN3C)nc3c2CCN(c2cccc(C)c2C)C3)CC1CC#N (stereo partly drawn) [Example 228, 2-(1-acryloyl-4-(7-(2,3-dimethylphenyl)-2-(((S)-1-methylpyrrolidin-2-yl)methoxy)-5,6,7,8-tetrahydropyrido[3,4-d]pyrimidin-4-yl)piperazin-2-yl)acetonitrile] | 0.0001 to 1 | 
15 | C (“C”>50% POC) | C=CC(=O)N1CCN(c2nc(OC[C@@H]3CCCN3C)nc3c2CCN(c2ccncc2C(F)(F)F)C3)CC1CC#N (stereo partly drawn) [Example 239, 2-(1-acryloyl-4-(2-(((S)-1-methylpyrrolidin-2-yl)methoxy)-7-(3-(trifluoromethyl)pyridin-4-yl)-5,6,7,8-tetrahydropyrido[3,4-d]pyrimidin-4-yl)piperazin-2-yl)acetonitrile] | > 1 | 
16 | C (“C”>50% POC) | C=CC(=O)N1CCN(c2nc(OC[C@@H]3CCCN3C)nc3c2CCN(c2cccc4cc(F)ccc24)C3)CC1CC#N (stereo partly drawn) [Example 290, 2-[4-[7-(6-fluoro-1-naphthyl)-2-[[(2S)-1-methylpyrrolidin-2-yl]methoxy]-6,8-dihydro-5H-pyrido[3,4-d]pyrimidin-4-yl]-1-prop-2-enoyl-piperazin-2-yl]acetonitrile] |  | IC50 ([1]; pERK(Thr202/Tyr204) normalized with GAPDH, NCI-H358 cells, 3 hours, read-out: IC50): 0.0001 to 1 µM
17 | C (“C”>50% POC) | C=CC(=O)N1CCN(c2nc(OC[C@@H]3CCCN3C)nc3c2CCN(c2cccc(C)c2C(F)(F)F)C3)CC1CC#N (stereo partly drawn) [Example 265, 2-(1-acryloyl-4-(7-(3-methyl-2-(trifluoromethyl)phenyl)-2-(((S)-1-methylpyrrolidin-2-yl)methoxy)-5,6,7,8-tetrahydropyrido[3,4-d]pyrimidin-4-yl)piperazin-2-yl)acetonitrile] | 0.0001 to 1 | 
18 | C (“C”>50% POC) | C=CC(=O)N1CCN(c2nc(OC[C@@H]3CCCN3C)nc3c2CCN(c2cccc(C)c2C)C3)C[C@@H]1CC#N [Example 393, 2-((S)-1-acryloyl-4-(7-(2,3-dimethylphenyl)-2-(((S)-1-methylpyrrolidin-2-yl)methoxy)-5,6,7,8-tetrahydropyrido[3,4-d]pyrimidin-4-yl)piperazin-2-yl)acetonitrile] | 0.0001 to 1 | 
19 | C (“C”>50% POC) | C=CC(=O)N1CCN(c2nc(OC[C@@H]3CCCN3CC)nc3c2CCN(c2ccc(F)c4ccccc24)C3)CC1CC#N (stereo partly drawn) [Example 322, 2-(1-acryloyl-4-(2-(((S)-1-ethylpyrrolidin-2-yl)methoxy)-7-(4-fluoronaphthalen-1-yl)-5,6,7,8-tetrahydropyrido[3,4-d]pyrimidin-4-yl)piperazin-2-yl)acetonitrile] | 0.0001 to 1 | 
20 | C (“C”>50% POC) | C=CC(=O)N1CCN(c2nc(OCC(C)(C)N(C)C)nc3c2CCN(c2cccc4ccccc24)C3)CC1CC#N (stereo not shown) [Example 269, 2-(1-acryloyl-4-(2-(2-(dimethylamino)-2-methylpropoxy)-7-(naphthalen-1-yl)-5,6,7,8-tetrahydropyrido[3,4-d]pyrimidin-4-yl)piperazin-2-yl)acetonitrile] | 0.0001 to 1 | 
21 | C (“C”>50% POC) | C=CC(=O)N1CCN(c2nc(OC[C@@H]3CCCN3C)nc3c2CCN(c2cnccc2OC)C3)C[C@@H]1CC#N [Example 340, 2-((S)-1-acryloyl-4-(7-(4-methoxypyridin-3-yl)-2-(((S)-1-methylpyrrolidin-2-yl)methoxy)-5,6,7,8-tetrahydropyrido[3,4-d]pyrimidin-4-yl)piperazin-2-yl)acetonitrile] | > 1 | 
22 | C (“C”>50% POC) | C=CC(=O)N1CCN(c2nc(OC[C@@H]3CCCN3C)nc3c2CCN(c2nncc4ccccc24)C3)C[C@@H]1CC#N [Example 430, 2-((S)-1-acryloyl-4-(2-(((S)-1-methylpyrrolidin-2-yl)methoxy)-7-(phthalazin-1-yl)-5,6,7,8-tetrahydropyrido[3,4-d]pyrimidin-4-yl)piperazin-2-yl)acetonitrile] | > 1 | 
23 | C (“C”>50% POC) | C=CC(=O)N1CCN(c2nc(OC[C@H]3COCCN3C)nc3c2CCN(c2cccc4ccccc24)C3)CC1CC#N (stereo partly drawn) [Example 273, 2-(1-acryloyl-4-(2-(((R)-4-methylmorpholin-3-yl)methoxy)-7-(naphthalen-1-yl)-5,6,7,8-tetrahydropyrido[3,4-d]pyrimidin-4-yl)piperazin-2-yl)acetonitrile] | > 1 | 
